Among the data in PubChem BioAssay (NCI) are GI50 and TGI values, retold here.

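96-well plates; 48 h exposure; 5 concentrations. Endpoints by linear interpolation between flanking doses. Not reached: highest tested concentration assigned. Here, GI50 denotes the concentration required for 50% inhibition of growth. TGI marks complete inhibition of growth.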

Common to all, as to assay: NCI-60 cell line screen, 48 h
The subject of experiment [1] is OVCAR-8 ovarian.
The test system of experiment [2] is SNB-75 CNS.
Experiment [3] relates to HL-60(TB) leukemia.
Experiment [4] deals with PC-3 prostate.
The test system of experiment [5] is CAKI-1 renal.
The test system of experiment [6] is MALME-3M melanoma.
The test system of experiment [7] is SK-MEL-2 melanoma.
Experiment [8] has as its system MDA-MB-435.

Consider `NCCCNc1nc2ccccc2c2c(=O)c3cc(OC(F)(F)F)ccc3sc12`, for which the GI50 was 2.01 µM in experiment [1]; 1.39 µM in experiment [2]; 1.84 µM in experiment [3]; 1.67 µM in experiment [4]; 1.58 µM in experiment [5]; 1.57 µM in experiment [6]. Also, the GI50 is 1.93 µM in experiment [7] and 1.59 µM in experiment [8]. Further, the TGI was determined as 4.77 µM in experiment [1]; 2.73 µM in experiment [2]; 3.59 µM in experiment [3]; 3.19 µM in experiment [4]; 2.93 µM in experiment [5]; 3.08 µM in experiment [6]. Moreover, the TGI in experiment [7] came out at 3.72 µM; in experiment [8], 2.96 µM.
